Values joined by “and” are separate entries in the source; they are usually repeats but may differ in a detail not shown here. Identical values can stand only once. Toxic doses and inconclusive results are not listed.
Tested on: L1210 leukemia ip in BDF1 mice, survival T/C
Assay: NCI In Vivo Anticancer Drug Screen. Data for tumor model L1210 Leukemia (intraperitoneal) in B6D2F1 (BDF1) mice
Details: endpoint: mean survival time, higher = longer survival
How it was run: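 Ratio derived from survival: compound-dosed mice over vehicle-dosed mice, all bearing a transplantable tumor.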

COC(C(=O)C(O)C(C)O)C1Cc2cc3cc(OC4CC(OC(C)=O)C(OC5CC(O)C(OC)C(C)O5)C(C)O4)cc(O)c3c(O)c2C(=O)C1OC1CC(OC2CC(OC3CC(C)(O)C(OC(=O)C(C)C)C(C)O3)C(O)C(C)O2)C(O)C(C)O1 (stereo not drawn)
T/C (dose: 0.09 mg/kg/injection, schedule: Q01DX017 (ip), vehicle: carboxymethylcellulose (CMC)): 97 % of control
T/C (dose: 0.18 mg/kg/injection, schedule: Q01DX017 (ip), vehicle: carboxymethylcellulose (CMC)): 109 % of control
T/C (dose: 0.18 mg/kg/injection, schedule: Q## X005 (ip), vehicle: carboxymethylcellulose (CMC)): 98 % of control
T/C (dose: 0.2 mg/kg/injection, schedule: Q01DX015 (ip), vehicle: carboxymethylcellulose (CMC)): 102 % of control
T/C (dose: 0.24 mg/kg/injection, schedule: Q## X024 (ip), vehicle: carboxymethylcellulose (CMC)): 92 % of control
T/C (dose: 0.25 mg/kg/injection, schedule: Q01DX009 (ip), vehicle: other): 103 % of control
T/C (dose: 0.25 mg/kg/injection, schedule: Q## X003 (ip), vehicle: carboxymethylcellulose (CMC)): 94 % of control
T/C (dose: 0.25 mg/kg/injection, schedule: Q#A X034 (ip), vehicle: carboxymethylcellulose (CMC)): 119 % of control
T/C (dose: 0.37 mg/kg/injection, schedule: Q01DX001 (ip), vehicle: carboxymethylcellulose (CMC)): 101 % of control
T/C (dose: 0.37 mg/kg/injection, schedule: Q01DX010 (ip), vehicle: saline): 116 % of control
T/C (dose: 0.37 mg/kg/injection, schedule: Q02DX005 (ip), vehicle: saline): 101 % of control
T/C (dose: 0.37 mg/kg/injection, schedule: Q02DX009 (ip), vehicle: carboxymethylcellulose (CMC)): 121 % of control
T/C (dose: 0.37 mg/kg/injection, schedule: Q## X003 (ip), vehicle: saline): 98 % of control
T/C (dose: 0.37 mg/kg/injection, schedule: Q## X005 (ip), vehicle: carboxymethylcellulose (CMC)): 107 % of control
T/C (dose: 0.4 mg/kg/injection, schedule: Q01DX015 (ip), vehicle: carboxymethylcellulose (CMC)): 120 % of control
T/C (dose: 0.48 mg/kg/injection, schedule: Q## X024 (ip), vehicle: carboxymethylcellulose (CMC)): 89 % of control
T/C (dose: 0.5 mg/kg/injection, schedule: Q01DX001 (ip), vehicle: saline): 103 % of control
T/C (dose: 0.5 mg/kg/injection, schedule: Q01DX005 (ip), vehicle: carboxymethylcellulose (CMC)): 106 % of control
T/C (dose: 0.5 mg/kg/injection, schedule: Q01DX006 (iv), vehicle: carboxymethylcellulose (CMC)): 104 % of control
T/C (dose: 0.5 mg/kg/injection, schedule: Q01DX009 (ip), vehicle: carboxymethylcellulose (CMC)): 113 % of control
T/C (dose: 0.5 mg/kg/injection, schedule: Q01DX009 (ip), vehicle: other): 122 % of control
T/C (dose: 0.5 mg/kg/injection, schedule: Q01DX015 (im), vehicle: carboxymethylcellulose (CMC)): 97 % of control
T/C (dose: 0.5 mg/kg/injection, schedule: Q01DX015 (sc), vehicle: carboxymethylcellulose (CMC)): 95 % of control
T/C (dose: 0.5 mg/kg/injection, schedule: Q01DX Z (ip), vehicle: saline): 123 % of control
T/C (dose: 0.5 mg/kg/injection, schedule: Q## X003 (ip), vehicle: carboxymethylcellulose (CMC)): 93 % of control
T/C (dose: 0.75 mg/kg/injection, schedule: Q01DX001 (ip), vehicle: carboxymethylcellulose (CMC)): 106 % of control
T/C (dose: 0.75 mg/kg/injection, schedule: Q02DX005 (ip), vehicle: saline): 116 % of control
T/C (dose: 0.75 mg/kg/injection, schedule: Q## X003 (ip), vehicle: saline): 105 % of control
T/C (dose: 0.75 mg/kg/injection, schedule: Q## X005 (ip), vehicle: carboxymethylcellulose (CMC)): 117 % of control
T/C (dose: 1.0 mg/kg/injection, schedule: Q01DX001 (ip), vehicle: other): 94 % of control
T/C (dose: 1.0 mg/kg/injection, schedule: Q01DX001 (ip), vehicle: saline): 114 % of control and 115 % of control
T/C (dose: 1.0 mg/kg/injection, schedule: Q01DX005 (ip), vehicle: carboxymethylcellulose (CMC)): 110 % of control
T/C (dose: 1.0 mg/kg/injection, schedule: Q01DX006 (iv), vehicle: carboxymethylcellulose (CMC)): 96 % of control
T/C (dose: 1.0 mg/kg/injection, schedule: Q01DX009 (ip), vehicle: carboxymethylcellulose (CMC)): 116 % of control
T/C (dose: 1.0 mg/kg/injection, schedule: Q01DX009 (ip), vehicle: other): 114 % of control
T/C (dose: 1.0 mg/kg/injection, schedule: Q01DX015 (im), vehicle: carboxymethylcellulose (CMC)): 101 % of control
T/C (dose: 1.0 mg/kg/injection, schedule: Q01DX015 (sc), vehicle: carboxymethylcellulose (CMC)): 105 % of control
T/C (dose: 1.0 mg/kg/injection, schedule: Q01DX017 (ip), vehicle: carboxymethylcellulose (CMC)): 163 % of control
T/C (dose: 1.0 mg/kg/injection, schedule: Q01DX Z (ip), vehicle: saline): 115 % of control
T/C (dose: 1.0 mg/kg/injection, schedule: Q02DX009 (ip), vehicle: carboxymethylcellulose (CMC)): 154 % of control
T/C (dose: 1.0 mg/kg/injection, schedule: Q## X002 (ip), vehicle: carboxymethylcellulose (CMC)): 88 % of control
T/C (dose: 1.0 mg/kg/injection, schedule: Q## X003 (ip), vehicle: carboxymethylcellulose (CMC)): 95 % of control
T/C (dose: 1.0 mg/kg/injection, schedule: Q## X008 (ip), vehicle: carboxymethylcellulose (CMC)): 88 % of control
T/C (dose: 1.0 mg/kg/injection, schedule: Q## X024 (ip), vehicle: carboxymethylcellulose (CMC)): 93 % of control
T/C (dose: 1.0 mg/kg/injection, schedule: Q#A X034 (ip), vehicle: carboxymethylcellulose (CMC)): 170 % of control
T/C (dose: 1.5 mg/kg/injection, schedule: Q01DX001 (ip), vehicle: carboxymethylcellulose (CMC)): 117 % of control
T/C (dose: 1.5 mg/kg/injection, schedule: Q01DX001 (ip), vehicle: saline): 114 % of control
T/C (dose: 1.5 mg/kg/injection, schedule: Q01DX013 (ip), vehicle: saline): 124 % of control
T/C (dose: 1.5 mg/kg/injection, schedule: Q02DX005 (ip), vehicle: saline): 122 % of control
T/C (dose: 1.5 mg/kg/injection, schedule: Q02DX009 (ip), vehicle: carboxymethylcellulose (CMC)): 162 % of control
T/C (dose: 1.6 mg/kg/injection, schedule: Q01DX013 (ip), vehicle: saline): 163 % of control
T/C (dose: 2.0 mg/kg/injection, schedule: Q01DX001 (ip), vehicle: other): 108 % of control
T/C (dose: 2.0 mg/kg/injection, schedule: Q01DX001 (ip), vehicle: saline): 116 % of control and 123 % of control
T/C (dose: 2.0 mg/kg/injection, schedule: Q01DX005 (ip), vehicle: carboxymethylcellulose (CMC)): 123 % of control
T/C (dose: 2.0 mg/kg/injection, schedule: Q01DX006 (iv), vehicle: carboxymethylcellulose (CMC)): 121 % of control
T/C (dose: 2.0 mg/kg/injection, schedule: Q01DX009 (ip), vehicle: other): 177 % of control
T/C (dose: 2.0 mg/kg/injection, schedule: Q01DX009 (ip), vehicle: saline): 166 % of control
T/C (dose: 2.0 mg/kg/injection, schedule: Q01DX015 (im), vehicle: carboxymethylcellulose (CMC)): 121 % of control
T/C (dose: 2.0 mg/kg/injection, schedule: Q01DX015 (ip), vehicle: carboxymethylcellulose (CMC)): 195 % of control
T/C (dose: 2.0 mg/kg/injection, schedule: Q01DX015 (oral), vehicle: carboxymethylcellulose (CMC)): 101 % of control
T/C (dose: 2.0 mg/kg/injection, schedule: Q01DX015 (sc), vehicle: carboxymethylcellulose (CMC)): 114 % of control
T/C (dose: 2.0 mg/kg/injection, schedule: Q01DX017 (ip), vehicle: carboxymethylcellulose (CMC)): 184 % of control
T/C (dose: 2.0 mg/kg/injection, schedule: Q01DX Z (ip), vehicle: saline): 106 % of control
T/C (dose: 2.0 mg/kg/injection, schedule: Q02DX009 (ip), vehicle: carboxymethylcellulose (CMC)): 192 % of control
T/C (dose: 2.0 mg/kg/injection, schedule: Q## X002 (ip), vehicle: carboxymethylcellulose (CMC)): 100 % of control
T/C (dose: 2.0 mg/kg/injection, schedule: Q## X003 (ip), vehicle: carboxymethylcellulose (CMC)): 113 % of control
T/C (dose: 2.0 mg/kg/injection, schedule: Q## X005 (ip), vehicle: carboxymethylcellulose (CMC)): 150 % of control
T/C (dose: 2.0 mg/kg/injection, schedule: Q## X008 (ip), vehicle: carboxymethylcellulose (CMC)): 97 % of control
T/C (dose: 2.0 mg/kg/injection, schedule: Q## X016 (ip), vehicle: carboxymethylcellulose (CMC)): 97 % of control
T/C (dose: 2.0 mg/kg/injection, schedule: Q## X024 (ip), vehicle: carboxymethylcellulose (CMC)): 103 % of control
T/C (dose: 3.0 mg/kg/injection, schedule: Q01DX001 (ip), vehicle: carboxymethylcellulose (CMC)): 115 % of control
T/C (dose: 3.0 mg/kg/injection, schedule: Q01DX001 (ip), vehicle: saline): 118 % of control
T/C (dose: 3.0 mg/kg/injection, schedule: Q02DX009 (ip), vehicle: carboxymethylcellulose (CMC)): 151 % of control
T/C (dose: 3.0 mg/kg/injection, schedule: Q## X005 (ip), vehicle: carboxymethylcellulose (CMC)): 152 % of control
T/C (dose: 3.2 mg/kg/injection, schedule: Q01DX015 (ip), vehicle: carboxymethylcellulose (CMC)): 163 % of control
T/C (dose: 4.0 mg/kg/injection, schedule: Q01DX001 (ip), vehicle: other): 97 % of control
T/C (dose: 4.0 mg/kg/injection, schedule: Q01DX001 (ip), vehicle: saline): 104 % of control
T/C (dose: 4.0 mg/kg/injection, schedule: Q01DX006 (iv), vehicle: carboxymethylcellulose (CMC)): 122 % of control
T/C (dose: 4.0 mg/kg/injection, schedule: Q01DX009 (ip), vehicle: carboxymethylcellulose (CMC)): 114 % of control
T/C (dose: 4.0 mg/kg/injection, schedule: Q01DX009 (ip), vehicle: other): 101 % of control
T/C (dose: 4.0 mg/kg/injection, schedule: Q01DX015 (im), vehicle: carboxymethylcellulose (CMC)): 94 % of control
T/C (dose: 4.0 mg/kg/injection, schedule: Q01DX015 (oral), vehicle: carboxymethylcellulose (CMC)): 104 % of control
T/C (dose: 4.0 mg/kg/injection, schedule: Q01DX015 (sc), vehicle: carboxymethylcellulose (CMC)): 115 % of control
T/C (dose: 4.0 mg/kg/injection, schedule: Q02DX009 (ip), vehicle: carboxymethylcellulose (CMC)): 259 % of control
T/C (dose: 4.0 mg/kg/injection, schedule: Q## X002 (ip), vehicle: carboxymethylcellulose (CMC)): 106 % of control
T/C (dose: 4.0 mg/kg/injection, schedule: Q## X005 (ip), vehicle: carboxymethylcellulose (CMC)): 170 % of control
T/C (dose: 4.0 mg/kg/injection, schedule: Q## X008 (ip), vehicle: carboxymethylcellulose (CMC)): 104 % of control
T/C (dose: 4.0 mg/kg/injection, schedule: Q## X016 (ip), vehicle: carboxymethylcellulose (CMC)): 97 % of control
T/C (dose: 6.0 mg/kg/injection, schedule: Q02DX009 (ip), vehicle: carboxymethylcellulose (CMC)): 113 % of control
T/C (dose: 8.0 mg/kg/injection, schedule: Q01DX001 (ip), vehicle: carboxymethylcellulose (CMC)): 98 % of control
T/C (dose: 8.0 mg/kg/injection, schedule: Q01DX001 (ip), vehicle: other): 101 % of control
T/C (dose: 8.0 mg/kg/injection, schedule: Q01DX015 (oral), vehicle: carboxymethylcellulose (CMC)): 97 % of control
T/C (dose: 8.0 mg/kg/injection, schedule: Q## X002 (ip), vehicle: carboxymethylcellulose (CMC)): 116 % of control
T/C (dose: 16.0 mg/kg/injection, schedule: Q01DX015 (oral), vehicle: carboxymethylcellulose (CMC)): 101 % of control
T/C (dose: 32.0 mg/kg/injection, schedule: Q01DX015 (oral), vehicle: carboxymethylcellulose (CMC)): 109 % of control
T/C (dose: 62.5 micrograms/kg/injection, schedule: Q01DX Z (ip), vehicle: saline): 108 % of control
T/C (dose: 125.0 micrograms/kg/injection, schedule: Q01DX Z (ip), vehicle: saline): 109 % of control
T/C (dose: 250.0 micrograms/kg/injection, schedule: Q01DX Z (ip), vehicle: saline): 114 % of control
